Measured values reported in the SangsterLogP compilation.

SMILES	logP
O=C(O)Cn1ccc2ccccc21	1.92
O=C(O)c1cc2ccccc2cc1O	3.05
O=C(O)Cc1ccccc1O	1.47
O=C(O)Cc1ccc(O)cc1	1.26
O=C(O)c1ccc(O)c(O)c1	0.99
COc1cccc(/C=C/C(=O)O)c1	2.37
O=C(O)c1cc(O)c(O)c(O)c1	0.72
O=C(O)Cn1ccc2cc(O)ccc21	1.17
COc1cc(CC(=O)O)ccc1O	1.18
O=C(O)Cc1ccc(O)c(O)c1	0.98
O=C(O)c1cc(O)cc(O)c1	0.94
COc1cccc(C(O)C(=O)O)c1 (centres undefined)	1.33
CCCCOC(=O)c1ccccc1	3.68
O=C(O)CCn1ccc2ccccc21	2.2
O=C(O)Cc1cc(O)ccc1O	0.86
O=C(O)C1CCCCC1	1.96
CCC(=O)c1ccccc1	2.3
CC(C)CCOC(=O)c1ccccc1	4.1
COc1cc(C(O)C(=O)O)ccc1O (centres undefined)	0.84
